The source of these data is patent US20060293264A1, “STAT3 decoy oligonucleotides and uses therefor” (priority 2004, published 2006).

One data set relates to SCCHN cells (1483). In words: Annexin 5-Cy3 apoptosis assay in SCCHN cells. It counts as cell-based. To be noted: 1483 cells; 25 μM, 6 days; p<0.0001. How it is done: SCCHN cells (1483) were treated with mutant control decoy (25 μM), or STAT3 decoy alone (25 μM), or cisplatin alone (20 μM), or STAT3 decoy (25 μM) plus cisplatin (20 μM). Mutant control decoy or STAT3 decoy was always applied for a total of 6 days, and cisplatin was added for the last 24 hr before harvesting. The effects of the STAT3 decoy plus cisplatin on apoptosis was assessed by an Annexin 5-Cy3 apoptosis assay (BioVision Research Products, 2455-D Old Middlefield Way, Mountain View, Calif. 94043 USA) and Bcl-xL and Cyclin D1 were examined using immunoblotting as described below.
Following treatment with STAT3 decoy plus cisplatin, SCCHN cells were detached by trypsinization, counted and pelleted (1000 r.p.m. for 5 min). Cell pellets were washed once with PBS (pH 7.4) and resuspended in 100 μl Annexin V binding buffer (10 mM HEPES, pH 7.4, 140 mM NaCl, 2.5 mM CaCl2). […] The membranes of apoptotic cells are stained a bright orange color when analyzed with a fluorescence microscope. The ratio (percentage) of apoptotic to total cells (apoptotic plus non-apoptotic cells) was calculated for each high power field. For each treatment, 5-10 high power fields of view were quantitated on each section.

For the next data set, the target named is T1, STAT1 (Homo sapiens, UniProt P42224).
T1 construct: Nuclear protein extracts of PCI-15B cells, prepared according to standard methods, were used for the EMSA; endogenous in cells; host or cells: PCI-15B cells (nuclear extract)
T1 sequence (P42224 2-750 limits assumed): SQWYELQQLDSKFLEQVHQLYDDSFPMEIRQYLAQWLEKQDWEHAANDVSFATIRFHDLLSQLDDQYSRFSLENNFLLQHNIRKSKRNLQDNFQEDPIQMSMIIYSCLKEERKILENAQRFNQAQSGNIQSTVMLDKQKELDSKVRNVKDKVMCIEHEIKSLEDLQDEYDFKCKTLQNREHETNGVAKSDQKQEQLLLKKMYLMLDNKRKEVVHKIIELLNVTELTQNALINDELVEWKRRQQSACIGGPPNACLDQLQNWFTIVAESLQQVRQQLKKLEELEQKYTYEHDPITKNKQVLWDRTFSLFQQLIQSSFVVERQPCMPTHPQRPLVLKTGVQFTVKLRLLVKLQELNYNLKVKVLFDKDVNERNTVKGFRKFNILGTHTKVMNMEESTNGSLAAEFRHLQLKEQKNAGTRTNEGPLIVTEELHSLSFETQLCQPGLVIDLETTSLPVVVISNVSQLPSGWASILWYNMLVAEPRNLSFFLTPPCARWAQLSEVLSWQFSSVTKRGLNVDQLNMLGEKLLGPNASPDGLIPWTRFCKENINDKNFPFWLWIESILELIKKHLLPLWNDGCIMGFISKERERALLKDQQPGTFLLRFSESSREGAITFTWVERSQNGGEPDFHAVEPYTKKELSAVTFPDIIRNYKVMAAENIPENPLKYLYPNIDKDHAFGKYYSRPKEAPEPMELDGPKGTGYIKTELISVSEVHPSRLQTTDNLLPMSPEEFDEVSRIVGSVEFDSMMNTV
The data set can be described thus: EMSA of STAT1 binding to the STAT3 decoy, PCI-15B nuclear extracts. To be noted: supershift. How it is done: FIG. 10 depicts binding of STAT 1 to the STAT3 decoy in an electrophoretic mobility shift assay (EMSA). Nuclear protein extracts of PCI-15B cells, prepared according to standard methods, were used for the EMSA. The specificity of STAT1 or STAT3 binding to the STAT3 decoy was determined by supershifting with STAT1- or STAT3-specific antibodies, or both. The experiment has been repeated more than 3 times.

For data set [1], the system named is head and neck squamous cell carcinoma. To be noted: dose-dependent; Leong et al. 2003; cited from earlier work.
The subject of another data set is p53-responsive element. The data set can be described thus: p53-Luciferase reporter gene assay in UM-22B SCCHN cells. Format: cell-based. Conditions: UM-22B p53-Luc, 2 μg transfected, 24 hrs. How it is done:
FIG. 8 depicts the inhibition of reporter gene expression from a p53-responsive element in SCCHN cells. An SCCHN cell line, UM-22B, was used to generate a stable cell line expressing a p53-Luciferase (p53-Luc) reporter gene (The p53-Luc plasmid carrying 14 repeats of p53 transcription recognition sequence: 5'-[…] ID NO: 30)), was obtained from Stratagene, Catalog number: 219085-51). The cells were transfected with 2 μg of the STAT3 decoy or the control mutant decoy. At 24 hrs after transfection, luciferase (Luc) activity was measured and normalized to the total amount of protein according to standard methods.

As for “STAT3 decoy (sense CATTTCCCGTAAATC; antisense GATTTACGGGAAATG; phosphorothioate modified, further chemistry not given here; listed as Homo sapiens)”, the “apoptosis compared with mutant control decoy” value with SCCHN cells (1483) is given as “increased”. For the same substance, the “binding to STAT1” value in the data set with STAT1 is “able to bind”. For the same substance, the “head and neck squamous cell carcinoma growth in vitro” value in data set [1] is listed as “abrogate”. Further, in the data set with p53-responsive element, the p53 reporter activity entry is listed as “specifically interfere”.
